Data reported in PubChem BioAssay (NCI).
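These data come from cells grown in 96-well plates and exposed to compound for 48 hours at five concentrations. GI50 is the concentration that inhibits growth by half. TGI: total growth inhibition.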

Assays:
Experiment in all cases: growth of human tumour cells (NCI), 48 h
M14 melanoma = test system: M14 melanoma
SN12C renal = test system: SN12C renal
U251 CNS = test system: U251 CNS
RPMI-8226 leukemia = test system: RPMI-8226 leukemia
HCT-116 colon = test system: HCT-116 colon
MALME-3M melanoma = test system: MALME-3M melanoma
SF-539 CNS = test system: SF-539 CNS
HOP-92 NSCLC = test system: HOP-92 NSCLC
SK-OV-3 ovarian = test system: SK-OV-3 ovarian
HCT-15 colon = test system: HCT-15 colon
SF-268 CNS = test system: SF-268 CNS
UACC-257 melanoma = test system: UACC-257 melanoma
MDA-MB-468 breast = test system: MDA-MB-468 breast
A549 NSCLC = test system: A549 NSCLC
BT-549 breast = test system: BT-549 breast
TK-10 renal = test system: TK-10 renal
NCI/ADR-RES ovarian = test system: NCI/ADR-RES ovarian
LOX IMVI melanoma = test system: LOX IMVI melanoma
MOLT-4 leukemia = test system: MOLT-4 leukemia
OVCAR-3 ovarian = test system: OVCAR-3 ovarian
SNB-19 CNS = test system: SNB-19 CNS
SW-620 colon = test system: SW-620 colon
MDA-MB-435 = test system: MDA-MB-435
OVCAR-8 ovarian = test system: OVCAR-8 ovarian
A498 renal = test system: A498 renal
RXF 393 renal = test system: RXF 393 renal
HL-60(TB) leukemia = test system: HL-60(TB) leukemia
COLO 205 colon = test system: COLO 205 colon
SNB-75 CNS = test system: SNB-75 CNS
UACC-62 melanoma = test system: UACC-62 melanoma
OVCAR-5 ovarian = test system: OVCAR-5 ovarian
CAKI-1 renal = test system: CAKI-1 renal
MCF7 breast = test system: MCF7 breast
PC-3 prostate = test system: PC-3 prostate
T-47D breast = test system: T-47D breast
IGROV1 ovarian = test system: IGROV1 ovarian
DU-145 prostate = test system: DU-145 prostate
HCC-2998 colon = test system: HCC-2998 colon
NCI-H226 lung = test system: NCI-H226 lung
SK-MEL-5 melanoma = test system: SK-MEL-5 melanoma
786-0 renal = test system: 786-0 renal
OVCAR-4 ovarian = test system: OVCAR-4 ovarian
KM12 colon = test system: KM12 colon
NCI-H522 lung = test system: NCI-H522 lung
SK-MEL-2 melanoma = test system: SK-MEL-2 melanoma
HOP-62 NSCLC = test system: HOP-62 NSCLC
NCI-H460 lung = test system: NCI-H460 lung
HT29 colon = test system: HT29 colon
SF-295 CNS = test system: SF-295 CNS
HS 578T breast = test system: HS 578T breast
EKVX NSCLC = test system: EKVX NSCLC
ACHN renal = test system: ACHN renal
SK-MEL-28 melanoma = test system: SK-MEL-28 melanoma
CCRF-CEM leukemia = test system: CCRF-CEM leukemia
K-562 leukemia = test system: K-562 leukemia
NCI-H23 lung = test system: NCI-H23 lung

**Q.** How did the GI50 (M14 melanoma) turn out when `CCCCCCCCCCCCCCCCCCCC(=O)NCCc1c[nH]c2ccc(OC(=O)CCCC(=O)OCCOOCCOOCCOOCCOOCCOOCCOOCCOOCCOOCCOOCCOOCCOOCCOC)cc12` was run?
**A.** 29 µM

**Q.** What about the TGI (M14 melanoma) of the same molecule?
**A.** > 100 µM

**Q.** What about the GI50 (SN12C renal) of the same molecule?
**A.** 12.6 µM

**Q.** What about the TGI (SN12C renal) of the same molecule?
**A.** 33.2 µM

**Q.** And the GI50 (U251 CNS)?
**A.** 17.1 µM

**Q.** What about the TGI (U251 CNS) of the same molecule?
**A.** 33.9 µM

**Q.** What about the GI50 (RPMI-8226 leukemia) of the same molecule?
**A.** 3.22 µM

**Q.** What about the TGI (RPMI-8226 leukemia) of the same molecule?
**A.** 26.5 µM

**Q.** And the GI50 (HCT-116 colon)?
**A.** 30.7 µM

**Q.** What about the TGI (HCT-116 colon) of the same molecule?
**A.** > 100 µM

**Q.** And the GI50 (MALME-3M melanoma)?
**A.** 54.3 µM

**Q.** What about the TGI (MALME-3M melanoma) of the same molecule?
**A.** > 100 µM

**Q.** What about the GI50 (SF-539 CNS) of the same molecule?
**A.** 11 µM

**Q.** What about the TGI (SF-539 CNS) of the same molecule?
**A.** 25.3 µM

**Q.** And the GI50 (HOP-92 NSCLC)?
**A.** 18.6 µM

**Q.** And the TGI (HOP-92 NSCLC)?
**A.** 44.8 µM

**Q.** And the GI50 (SK-OV-3 ovarian)?
**A.** > 100 µM

**Q.** And the TGI (SK-OV-3 ovarian)?
**A.** > 100 µM

**Q.** And the GI50 (HCT-15 colon)?
**A.** 31 µM

**Q.** And the TGI (HCT-15 colon)?
**A.** > 100 µM

**Q.** And the GI50 (SF-268 CNS)?
**A.** 15.2 µM

**Q.** What about the TGI (SF-268 CNS) of the same molecule?
**A.** 47.1 µM

**Q.** And the GI50 (UACC-257 melanoma)?
**A.** > 100 µM

**Q.** And the TGI (UACC-257 melanoma)?
**A.** > 100 µM

**Q.** What about the GI50 (MDA-MB-468 breast) of the same molecule?
**A.** 29.6 µM

**Q.** And the TGI (MDA-MB-468 breast)?
**A.** > 100 µM

**Q.** And the GI50 (A549 NSCLC)?
**A.** 21.7 µM

**Q.** What about the TGI (A549 NSCLC) of the same molecule?
**A.** 62.3 µM

**Q.** And the GI50 (BT-549 breast)?
**A.** 4.15 µM

**Q.** And the TGI (BT-549 breast)?
**A.** 14 µM

**Q.** And the GI50 (TK-10 renal)?
**A.** > 100 µM

**Q.** And the TGI (TK-10 renal)?
**A.** > 100 µM

**Q.** What about the GI50 (NCI/ADR-RES ovarian) of the same molecule?
**A.** 21.8 µM

**Q.** And the TGI (NCI/ADR-RES ovarian)?
**A.** 72 µM

**Q.** And the GI50 (LOX IMVI melanoma)?
**A.** 13.4 µM

**Q.** What about the TGI (LOX IMVI melanoma) of the same molecule?
**A.** 33.1 µM

**Q.** And the GI50 (MOLT-4 leukemia)?
**A.** 4.61 µM

**Q.** And the TGI (MOLT-4 leukemia)?
**A.** 23 µM

**Q.** And the GI50 (OVCAR-3 ovarian)?
**A.** 10.7 µM

**Q.** What about the TGI (OVCAR-3 ovarian) of the same molecule?
**A.** 25.6 µM

**Q.** And the GI50 (SNB-19 CNS)?
**A.** 22.4 µM

**Q.** What about the TGI (SNB-19 CNS) of the same molecule?
**A.** 62.8 µM

**Q.** What about the GI50 (SW-620 colon) of the same molecule?
**A.** 35.5 µM

**Q.** And the TGI (SW-620 colon)?
**A.** > 100 µM

**Q.** What about the GI50 (MDA-MB-435) of the same molecule?
**A.** 41.2 µM

**Q.** What about the TGI (MDA-MB-435) of the same molecule?
**A.** > 100 µM

**Q.** What about the GI50 (OVCAR-8 ovarian) of the same molecule?
**A.** 16 µM

**Q.** And the TGI (OVCAR-8 ovarian)?
**A.** 38.5 µM

**Q.** What about the GI50 (A498 renal) of the same molecule?
**A.** > 100 µM

**Q.** What about the TGI (A498 renal) of the same molecule?
**A.** > 100 µM

**Q.** What about the GI50 (RXF 393 renal) of the same molecule?
**A.** 18.9 µM

**Q.** What about the TGI (RXF 393 renal) of the same molecule?
**A.** 39.2 µM

**Q.** And the GI50 (HL-60(TB) leukemia)?
**A.** 2.53 µM

**Q.** What about the TGI (HL-60(TB) leukemia) of the same molecule?
**A.** 10.3 µM

**Q.** What about the GI50 (COLO 205 colon) of the same molecule?
**A.** > 100 µM

**Q.** And the TGI (COLO 205 colon)?
**A.** > 100 µM

**Q.** What about the GI50 (SNB-75 CNS) of the same molecule?
**A.** > 100 µM

**Q.** What about the TGI (SNB-75 CNS) of the same molecule?
**A.** > 100 µM

**Q.** What about the GI50 (UACC-62 melanoma) of the same molecule?
**A.** 34.8 µM

**Q.** And the TGI (UACC-62 melanoma)?
**A.** > 100 µM

**Q.** What about the GI50 (OVCAR-5 ovarian) of the same molecule?
**A.** 68 µM

**Q.** What about the TGI (OVCAR-5 ovarian) of the same molecule?
**A.** > 100 µM

**Q.** And the GI50 (CAKI-1 renal)?
**A.** 34 µM

**Q.** And the TGI (CAKI-1 renal)?
**A.** > 100 µM

**Q.** What about the GI50 (MCF7 breast) of the same molecule?
**A.** 24.1 µM

**Q.** And the TGI (MCF7 breast)?
**A.** > 100 µM

**Q.** And the GI50 (PC-3 prostate)?
**A.** 11.6 µM

**Q.** And the TGI (PC-3 prostate)?
**A.** 49.5 µM

**Q.** And the GI50 (T-47D breast)?
**A.** 14.9 µM

**Q.** What about the TGI (T-47D breast) of the same molecule?
**A.** > 100 µM

**Q.** And the GI50 (IGROV1 ovarian)?
**A.** 16.2 µM

**Q.** And the TGI (IGROV1 ovarian)?
**A.** 38.9 µM

**Q.** What about the GI50 (DU-145 prostate) of the same molecule?
**A.** 24.8 µM

**Q.** And the TGI (DU-145 prostate)?
**A.** > 100 µM

**Q.** What about the GI50 (HCC-2998 colon) of the same molecule?
**A.** 44.7 µM

**Q.** And the TGI (HCC-2998 colon)?
**A.** > 100 µM

**Q.** What about the GI50 (NCI-H226 lung) of the same molecule?
**A.** 14 µM

**Q.** And the TGI (NCI-H226 lung)?
**A.** 33.1 µM

**Q.** What about the GI50 (SK-MEL-5 melanoma) of the same molecule?
**A.** 40.8 µM

**Q.** And the TGI (SK-MEL-5 melanoma)?
**A.** > 100 µM

**Q.** And the GI50 (786-0 renal)?
**A.** > 100 µM

**Q.** What about the TGI (786-0 renal) of the same molecule?
**A.** > 100 µM

**Q.** What about the GI50 (OVCAR-4 ovarian) of the same molecule?
**A.** 20.8 µM

**Q.** And the TGI (OVCAR-4 ovarian)?
**A.** 95.1 µM

**Q.** What about the GI50 (KM12 colon) of the same molecule?
**A.** 17.5 µM

**Q.** And the TGI (KM12 colon)?
**A.** 52.6 µM

**Q.** And the GI50 (NCI-H522 lung)?
**A.** 2.7 µM

**Q.** And the TGI (NCI-H522 lung)?
**A.** 9.36 µM

**Q.** What about the GI50 (SK-MEL-2 melanoma) of the same molecule?
**A.** 26.1 µM

**Q.** What about the TGI (SK-MEL-2 melanoma) of the same molecule?
**A.** > 100 µM

**Q.** And the GI50 (HOP-62 NSCLC)?
**A.** 26.7 µM

**Q.** And the TGI (HOP-62 NSCLC)?
**A.** > 100 µM

**Q.** What about the GI50 (NCI-H460 lung) of the same molecule?
**A.** 27.9 µM

**Q.** What about the TGI (NCI-H460 lung) of the same molecule?
**A.** > 100 µM

**Q.** What about the GI50 (HT29 colon) of the same molecule?
**A.** 32.9 µM

**Q.** And the TGI (HT29 colon)?
**A.** > 100 µM

**Q.** And the GI50 (SF-295 CNS)?
**A.** 15.7 µM

**Q.** What about the TGI (SF-295 CNS) of the same molecule?
**A.** 31.6 µM

**Q.** What about the GI50 (HS 578T breast) of the same molecule?
**A.** 38.7 µM

**Q.** What about the TGI (HS 578T breast) of the same molecule?
**A.** > 100 µM

**Q.** What about the GI50 (EKVX NSCLC) of the same molecule?
**A.** 26.9 µM

**Q.** And the TGI (EKVX NSCLC)?
**A.** > 100 µM

**Q.** And the GI50 (ACHN renal)?
**A.** 25.2 µM

**Q.** And the TGI (ACHN renal)?
**A.** > 100 µM

**Q.** And the GI50 (SK-MEL-28 melanoma)?
**A.** > 100 µM

**Q.** And the TGI (SK-MEL-28 melanoma)?
**A.** > 100 µM

**Q.** What about the GI50 (CCRF-CEM leukemia) of the same molecule?
**A.** 0.769 µM

**Q.** And the TGI (CCRF-CEM leukemia)?
**A.** 8.4 µM

**Q.** And the GI50 (K-562 leukemia)?
**A.** 5.59 µM

**Q.** And the TGI (K-562 leukemia)?
**A.** 26.4 µM

**Q.** And the GI50 (NCI-H23 lung)?
**A.** 18.9 µM

**Q.** What about the TGI (NCI-H23 lung) of the same molecule?
**A.** 42.4 µM
